Experimental findings from patent publication US11980209B2, “Consumables” (GIVAUDAN SA, priority 2007, dated 2024) are described below.

In the test the test system is perceived sweet taste (sweet sensitive panelists). The test is described as follows: Ranking test with R-index, isointensity of 100 ppm trilobatin in water (Example 1b). The class given is in vivo, human. To be noted: for R-index: critical values 35.39-64.61%. As to the method:
The sensory evaluation was conducted using a ranking method. Samples at ambient temperature were randomly presented in 15 ml blind aliquots (unidentifiable by panelists). Panels consisted of 15 sweet sensitive subjects and samples were presented in 2 replications over 1 session. After tasting each sample, the mouth was rinsed thoroughly with water at ambient temperature prior to tasting the next sample. Panelists were presented with 0.5%, 1%, 1.5% and 2% sucrose solutions in water and a fifth sample of 100 ppm trilobatin in water. Subjects were asked to rank the samples from low to high with respect to perceived sweet taste. R-indices were calculated for 100 ppm trilobatin versus either 0.5%, 1%, 1.5% or 2% sucrose.

Take `O=C(CCc1ccc(O)cc1)c1c(O)cc(O[C@@H]2O[C@H](CO)[C@@H](O)[C@H](O)[C@H]2O)cc1O` [trilobatin, 1-[4-(beta-D-glucopyranosyloxy)-2,6-dihydroxyphenyl]-3-(4-hydroxyphenyl)-1-propanone]: the “sample sweetness (trilobatin, 100 ppm)” value is given as “Isosweet” (100 ppm in water vs 0.5% sucrose solution), “Less sweet” (100 ppm in water vs 1.0% sucrose solution), “Less sweet” (100 ppm in water vs 1.5% sucrose solution) and “Less sweet” (100 ppm in water vs 2.0% sucrose solution). This compound also had an isointensity to sucrose (100 ppm trilobatin in water) of 0.5 % sucrose. Further, the R-index was found to be 44% (100 ppm trilobatin in water vs 0.5% sucrose), 13% (100 ppm trilobatin in water vs 1.0% sucrose), 0% (100 ppm trilobatin in water vs 1.5% sucrose) and 0% (100 ppm trilobatin in water vs 2.0% sucrose).
